Measurements from patent US20240293413A1, “COMPOUND AND METHOD FOR TREATING CHEMOTHERAPY-RELATED GASTROINTESTINAL SIDE EFFECTS” (ONQUALITY PHARMACEUTICALS CHINA LTD., priority 2021, published 2024).

Key:
Format in all cases: in vivo
[1] = test system: diarrhea caused by a chemotherapeutic agent in Balb/c mice; test: Examples 230-271 (Table 4): oral CDK inhibitor, relief of diarrhea caused by a chemotherapeutic agent
Outline: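 Balb/c mice, 10 per group (vehicle, chemotherapeutic agent, CDK inhibitor plus chemotherapeutic); CDK inhibitor dosed intragastrically before the chemotherapeutic agent by injection or gavage. Diarrhea graded daily.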

[2] = test system: diarrhea caused by a chemotherapeutic agent in Balb/c mice; test: Examples 343-381 (Table 6): oral versus intravenous CDK inhibitor, relief of diarrhea caused by a chemotherapeutic agent;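 on Relative remission rate: percent of treated mice whose diarrhea grade fell below chemotherapy-group average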
Outline: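 Balb/c mice (10 per group) received the CDK inhibitor orally or by tail-vein injection, or vehicle, followed by a chemotherapeutic agent or its solvent. Diarrhea grade was scored daily.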

[3] = test system: constipation caused by a chemotherapeutic agent in Balb/c mice; test: Examples 406-443 (Table 8): various administration modes of the CDK inhibitor, relief of constipation caused by a chemotherapeutic agent;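 on Relative remission rate of oral administration: percent of treated mice relieved versus chemotherapy group by feces reduction rate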;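 on Relative remission rate of other administration mode: percent of treated mice relieved versus chemotherapy group by feces reduction rate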
Outline: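 Balb/c mice (10 per group) received the CDK inhibitor orally, intravenously via the tail vein, intraperitoneally, intramuscularly, or topically on shaved abdominal skin, followed by a chemotherapeutic agent; vehicle groups served as controls. Feces amount over 3 h was recorded daily. Feces reduction rate was calculated relative to the control group.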

**Q.** Which Relative remission rate ([1]; Example 236, Doxorubicin (Dox) intravenous injection 12 mg/kg single, CDK inhibitor oral 180 mg/kg single, 1 h before, cycle 10 days) does the source give for CN1CCN(c2ccc(Nc3ncc4cc5n(c4n3)C3(CCCCC3)CNC5=O)nc2)CC1 [Trilaciclib (G1T28), Trilaciclib] here?
**A.** 40%

**Q.** And the Relative remission rate ([1]; Example 237, Doxorubicin (Dox) intravenous injection 12 mg/kg single, CDK inhibitor oral 180 mg/kg single, 12 h before, cycle 10 days)?
**A.** 60%

**Q.** What about the Relative remission rate ([1]; Example 238, Doxorubicin (Dox) intravenous injection 12 mg/kg single, CDK inhibitor oral 180 mg/kg single, 24 h before, cycle 10 days) of the same compound?
**A.** 60%

**Q.** What about the Relative remission rate ([1]; Example 239, Doxorubicin (Dox) intravenous injection 12 mg/kg single, CDK inhibitor oral 180 mg/kg single, 48 h before, cycle 10 days) of the same compound?
**A.** 0%

**Q.** What about the Relative remission rate ([1]; Example 254, Cytarabine (Ara-C) intraperitoneal injection 600 mg/kg single, CDK inhibitor oral 100 mg/kg single, 0.5 h before, cycle 8 days) of the same compound?
**A.** 60%

**Q.** And the Relative remission rate ([1]; Example 255, Cytarabine (Ara-C) intraperitoneal injection 600 mg/kg single, CDK inhibitor oral 100 mg/kg single, 4 h before, cycle 8 days)?
**A.** 80%

**Q.** What about the Relative remission rate ([1]; Example 256, Cytarabine (Ara-C) intraperitoneal injection 600 mg/kg single, CDK inhibitor oral 100 mg/kg single, 8 h before, cycle 8 days) of the same compound?
**A.** 80%

**Q.** And the Relative remission rate ([1]; Example 257, Cytarabine (Ara-C) intraperitoneal injection 600 mg/kg single, CDK inhibitor oral 100 mg/kg single, 12 h before, cycle 8 days)?
**A.** 60%

**Q.** What about the Relative remission rate ([1]; Example 258, Cytarabine (Ara-C) intraperitoneal injection 600 mg/kg single, CDK inhibitor oral 100 mg/kg single, 24 h before, cycle 8 days) of the same compound?
**A.** 40%

**Q.** What about the Relative remission rate ([1]; Example 259, Cytarabine (Ara-C) intraperitoneal injection 600 mg/kg single, CDK inhibitor oral 100 mg/kg single, 48 h before, cycle 8 days) of the same compound?
**A.** 0%

**Q.** And the Relative remission rate ([1]; Example 270, Vinorelbine (NVB) intramuscular injection 10 mg/kg single, CDK inhibitor oral 50 mg/kg single, 1 h before, cycle 7 days)?
**A.** 50%

**Q.** What about the Relative remission rate ([2]; Example 348, Etoposide intraperitoneal injection 75 mg/kg single, CDK inhibitor intravenous injection 100 mg/kg single, 24 h before, cycle 8 days) of the same compound?
**A.** 10%

**Q.** What about the Relative remission rate ([2]; Example 348, Etoposide intraperitoneal injection 75 mg/kg single, CDK inhibitor oral 100 mg/kg, 24 h before, cycle 8 days) of the same compound?
**A.** 60%

**Q.** And the Relative remission rate ([2]; Example 365, Carboplatin (CBP) intravenous injection 120 mg/kg single, CDK inhibitor intravenous injection 100 mg/kg single, 24 h before, cycle 10 days)?
**A.** 10%

**Q.** What about the Relative remission rate ([2]; Example 365, Carboplatin (CBP) intravenous injection 120 mg/kg single, CDK inhibitor oral 100 mg/kg single, 24 h before, cycle 10 days) of the same compound?
**A.** 30%

**Q.** What about the Relative remission rate ([2]; Example 367, Topotecan (TP) intraperitoneal injection 10 mg/kg single, CDK inhibitor intravenous injection 200 mg/kg single, 24 h before, cycle 10 days) of the same compound?
**A.** 10%

**Q.** And the Relative remission rate ([2]; Example 367, Topotecan (TP) intraperitoneal injection 10 mg/kg single, CDK inhibitor oral 100 mg/kg single, 24 h before, cycle 10 days)?
**A.** 30%

**Q.** What about the Relative remission rate ([2]; Example 377, Gemcitabine (GEM) intramuscular injection 120 mg/kg single, CDK inhibitor intravenous injection 50 mg/kg single, 1 h before, cycle 8 days) of the same compound?
**A.** 10%

**Q.** And the Relative remission rate ([2]; Example 377, Gemcitabine (GEM) intramuscular injection 120 mg/kg single, CDK inhibitor oral 50 mg/kg single, 1 h before, cycle 8 days)?
**A.** 60%

**Q.** What about the Relative remission rate ([2]; Example 380, Gemcitabine and carboplatin intravenous injection 120 (G) 100 (C) mg/kg single, CDK inhibitor intravenous injection 100 mg/kg single, 0.5 h before, cycle 8 days) of the same compound?
**A.** 20%

**Q.** And the Relative remission rate ([2]; Example 380, Gemcitabine and carboplatin intravenous injection 120 (G) 100 (C) mg/kg single, CDK inhibitor oral 100 mg/kg single, 0.5 h before, cycle 8 days)?
**A.** 60%

**Q.** What about the Relative remission rate ([2]; Example 381, Gemcitabine and carboplatin intravenous injection 120 (G) 100 (C) mg/kg single, CDK inhibitor intravenous injection 100 mg/kg single, 24 h before, cycle 8 days) of the same compound?
**A.** 10%

**Q.** What about the Relative remission rate ([2]; Example 381, Gemcitabine and carboplatin intravenous injection 120 (G) 100 (C) mg/kg single, CDK inhibitor oral 100 mg/kg single, 24 h before, cycle 8 days) of the same compound?
**A.** 40%

**Q.** What about the “relief of diarrhea by oral administration and injection administration” value ([2]; diarrhea caused by etoposide, etoposide in combination with cisplatin, carboplatin, gemcitabine, gemcitabine in combination with carboplatin, and topotecan, oral administration has the most significant effect) of the same compound?
**A.** effectively relieve diarrhea

**Q.** What about the “Relative remission rate of other administration mode” value ([3]; Example 411, Doxorubicin (Dox) intravenous injection 12 mg/kg single, CDK inhibitor intraperitoneal injection 100 mg/kg single, 24 h before, cycle 8 days) of the same compound?
**A.** 10%

**Q.** And the “Relative remission rate of oral administration” value ([3]; Example 411, Doxorubicin (Dox) intravenous injection 12 mg/kg single, CDK inhibitor oral 100 mg/kg single, 24 h before, cycle 8 days)?
**A.** 30%

**Q.** And the “Relative remission rate of other administration mode” value ([3]; Example 421, Etoposide and cisplatin intraperitoneal injection 50€ 5 mg/kg single, CDK inhibitor intravenous injection 100 mg/kg single, 24 h before, cycle 7 days)?
**A.** 10%

**Q.** What about the “Relative remission rate of oral administration” value ([3]; Example 421, Etoposide and cisplatin intraperitoneal injection 50€ 5 mg/kg single, CDK inhibitor oral 150 mg/kg single, 24 h before, cycle 7 days) of the same compound?
**A.** 20%

**Q.** And the “Relative remission rate of other administration mode” value ([3]; Example 436, Gemcitabine intramuscular injection 120 mg/kg single, CDK inhibitor intramuscular injection 100 mg/kg single, 24 h before, cycle 8 days)?
**A.** 10%

**Q.** What about the “Relative remission rate of oral administration” value ([3]; Example 436, Gemcitabine intramuscular injection 120 mg/kg single, CDK inhibitor oral 100 mg/kg single, 24 h before, cycle 8 days) of the same compound?
**A.** 40%

**Q.** What about the “Relative remission rate of other administration mode” value ([3]; Example 438, Gemcitabine and Carboplatin intravenous injection 120 (G) 100 (C) mg/kg single, CDK inhibitor intraperitoneal injection 100 mg/kg single, 12 h before, cycle 8 days) of the same compound?
**A.** 20%

**Q.** What about the “Relative remission rate of oral administration” value ([3]; Example 438, Gemcitabine and Carboplatin intravenous injection 120 (G) 100 (C) mg/kg single, CDK inhibitor oral 100 mg/kg single, 12 h before, cycle 8 days) of the same compound?
**A.** 50%

**Q.** And the “Relative remission rate of other administration mode” value ([3]; Example 439, Gemcitabine and Carboplatin intravenous injection 120 (G) 100 (C) mg/kg single, CDK inhibitor intraperitoneal injection 100 mg/kg single, 24 h before, cycle 8 days)?
**A.** 20%

**Q.** What about the “Relative remission rate of oral administration” value ([3]; Example 439, Gemcitabine and Carboplatin intravenous injection 120 (G) 100 (C) mg/kg single, CDK inhibitor oral 100 mg/kg single, 24 h before, cycle 8 days) of the same compound?
**A.** 50%

**Q.** What about the “improvement of constipation by oral administration, intraperitoneal injection, intramuscular injection, local administration” value ([3]; constipation caused by doxorubicin, etoposide, etoposide plus cisplatin, carboplatin, gemcitabine, gemcitabine plus carboplatin, under certain conditions, oral most significant) of the same compound?
**A.** can significantly improve constipation
